Patent US10988478B1, “Pyrazolo[1,5a]pyrimidine derivatives as IRAK4 modulators” (Genentech, Inc., priority 2015, dated 2021)

What follows are molecules tested against human IRAK4 (Homo sapiens (Human), UniProt Q9NWZ3) (assay: IRAK4 kinase inhibition, Transcreener fluorescence polarization ADP assay). Settings: recombinant full-length His6-IRAK4; 125 uM ATP; 90 min; Ki computed using ATP Km 642 uM.
Sequence of human IRAK4 (Q9NWZ3 whole entry): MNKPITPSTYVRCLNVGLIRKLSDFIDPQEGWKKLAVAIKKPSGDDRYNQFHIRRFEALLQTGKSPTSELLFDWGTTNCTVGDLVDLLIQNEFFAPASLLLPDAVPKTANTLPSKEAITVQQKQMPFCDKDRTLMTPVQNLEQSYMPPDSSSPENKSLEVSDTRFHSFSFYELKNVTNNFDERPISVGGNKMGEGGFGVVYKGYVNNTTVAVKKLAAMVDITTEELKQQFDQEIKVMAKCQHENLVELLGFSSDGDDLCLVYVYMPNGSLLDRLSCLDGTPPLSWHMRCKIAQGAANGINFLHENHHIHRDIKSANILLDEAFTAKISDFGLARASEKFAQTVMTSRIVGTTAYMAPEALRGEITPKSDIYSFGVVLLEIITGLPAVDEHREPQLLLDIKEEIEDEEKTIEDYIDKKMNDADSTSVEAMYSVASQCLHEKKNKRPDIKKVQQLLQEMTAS
Assay type: biochemical
Experimental: Compounds were assayed for inhibition of human IRAK4 and IRAK1 catalytic activity using recombinant enzyme produced from insect cells. Full-length IRAK4 protein, carrying an N-terminal His6-Tag, was obtained from Life Technologies (Carlsbad, Calif., USA). The IRAK1 construct was produced internally and was comprised of IRAK1 residues Arg194 to Ser712, preceded by an NH2-terminal His6 tag and the coding sequence for glutathione-S-transferase.
`C[C@@]1(CO)Cc2cc(NC(=O)c3cnn4cc(Cl)cnc34)c(N3CCOCC3)cc2O1` [Example 165, (S)-6-Chloro-N-(2-(hydroxymethyl)-2-methyl-6-morpholino-2,3-dihydrobenzofuran-5-yl)pyrazolo[1,5-a]pyrimidine-3-carboxamide] was tested, and the Ki was 5.6 nM. For `CC1(C)Cc2cc(NC(=O)c3cnn4cc(Cl)cnc34)c(N3CCC4(CCOC4)CC3)cc2O1` [Example 167, 6-Chloro-N-(2,2-dimethyl-6-(2-oxa-8-azaspiro[4.5]decan-8-yl)-2,3-dihydrobenzofuran-5-yl)pyrazolo[1,5-a]pyrimidine-3-carboxamide], the Ki was 2.8 nM. `CC1(CO)Cc2cc(NC(=O)c3cnn4cc(Cl)cnc34)c(N3CCN(CC(F)F)CC3)cc2O1` (centres unmarked) [Example 168] showed a Ki of 3.6 nM. In the case of `C[C@]1(CO)Cc2cc(NC(=O)c3cnn4cc(Cl)cnc34)c(N3CCN(CC(F)F)CC3)cc2O1` [Example 170, (R)-6-Chloro-N-(6-(4-(2,2-difluoroethyl)piperazin-1-yl)-2-(hydroxymethyl)-2-methyl-2,3-dihydrobenzofuran-5-yl)pyrazolo[1,5-a]pyrimidine-3-carboxamide], the Ki is reported as 3 nM. `C[C@]1(CO)Cc2cc(NC(=O)c3cnn4cccnc34)c(OC(F)(F)F)cc2O1` [Example 171, (R)—N-(2-(Hydroxymethyl)-2-methyl-6-(trifluoromethoxy)-2,3-dihydrobenzofuran-5-yl)pyrazolo[1,5-a]pyrimidine-3-carboxamide] showed a Ki of 38 nM. Work on `C[C@@]1(CO)Cc2cc(NC(=O)c3cnn4cccnc34)c(OC(F)(F)F)cc2O1` [Example 172, (S)—N-(2-(hydroxymethyl)-2-methyl-6-(trifluoromethoxy)-2,3-dihydrobenzofuran-5-yl)pyrazolo[1,5-a]pyrimidine-3-carboxamide] yielded a Ki of 16 nM. `O=C(Nc1cc2c(cc1N1CCOCC1)C(=O)N(CC(F)(F)F)C2)c1cnn2cccnc12` [Example 173, N-[6-Morpholino-1-oxo-2-(2,2,2-trifluoroethyl)isoindolin-5-yl]pyrazolo[1,5-a]pyrimidine-3-carboxamide] was tested, and the Ki was 29 nM. With `O=C(Nc1cc2c(cc1N1CCOCC1)C(=O)N(CC(F)F)C2)c1cnn2cccnc12` [Example 174, N-[2-(2,2-difluoroethyl)-6-morpholino-1-oxo-isoindolin-5-yl]pyrazolo[1,5-a]pyrimidine-3-carboxamide] the Ki was 20 nM. Work on `CC(C)(O)CCN1Cc2cc(NC(=O)c3cnn4cccnc34)c(N3CCOCC3)cc2C1=O` [Example 175, N-[2-(3-hydroxy-3-methyl-butyl)-6-morpholino-1-oxo-isoindolin-5-yl]pyrazolo[1,5-a]pyrimidine-3-carboxamide] yielded a Ki of 2.2 nM. For `CC(C)(O)CN1Cc2cc(NC(=O)c3cnn4cccnc34)c(N3CCOCC3)cc2C1=O` [Example 176, N-[2-(2-hydroxy-2-methyl-propyl)-6-morpholino-1-oxo-isoindolin-5-yl]pyrazolo[1,5-a]pyrimidine-3-carboxamide], the Ki was 51 nM. For `NC(=O)CN1CCN(c2cc3c(cc2NC(=O)c2cnn4cccnc24)CN(C2CCOCC2)C3=O)CC1` [Example 177, N-[6-[4-(2-amino-2-oxo-ethyl)piperazin-1-yl]-1-oxo-2-tetrahydropyran-4-yl-isoindolin-5-yl]pyrazolo[1,5-a]pyrimidine-3-carboxamide], the Ki was 2 nM. For `COCCN1Cc2cc(NC(=O)c3cnn4cccnc34)c(N3CCOCC3)cc2C1=O` [Example 178, N-[2-(2-methoxyethyl)-6-morpholino-1-oxo-isoindolin-5-yl]pyrazolo[1,5-a]pyrimidine-3-carboxamide], the Ki was 15 nM. Molecule `O=C(Nc1cc2c(cc1N1CCOCC1)C(=O)N(CCO)C2)c1cnn2cccnc12` [Example 179, N-[2-(2-hydroxyethyl)-6-morpholino-1-oxo-isoindolin-5-yl]pyrazolo[1,5-a]pyrimidine-3-carboxamide] has a Ki of 31 nM. With `CN1CCC(N2Cc3cc(NC(=O)c4cnn5cccnc45)c(N4CCOCC4)cc3C2=O)CC1` [Example 180, N-[2-(1-methyl-4-piperidyl)-6-morpholino-1-oxo-isoindolin-5-yl]pyrazolo[1,5-a]pyrimidine-3-carboxamide] the Ki was 3.8 nM. In the case of `O=C(Nc1cc2c(cc1N1CCOCC1)C(=O)N([C@H]1CC[C@H](O)CC1)C2)c1cnn2cccnc12` [Example 181, N-[2-(4-hydroxycyclohexyl)-6-morpholino-1-oxo-isoindolin-5-yl]pyrazolo[1,5-a]pyrimidine-3-carboxamide], the Ki is reported as 2 nM. `CNC(=O)[C@H]1[C@@H]2CN(c3cc4c(cc3NC(=O)c3cnn5cccnc35)CC(C)(C)O4)C[C@@H]21` [Example 182, N-[2,2-dimethyl-6-[(1S,5R)-6-(methylcarbamoyl)-3-azabicyclo[3.1.0]hexan-3-yl]-3H-benzofuran-5-yl]pyrazolo[1,5-a]pyrimidine-3-carboxamide] was tested, and the Ki was 56 nM. For `CNC(=O)CC1CCN(c2cc3c(cc2NC(=O)c2cnn4cccnc24)CC(C)(C)O3)CC1` [Example 183, N-[2,2-dimethyl-6-[4-[2-(methylamino)-2-oxo-ethyl]-1-piperidyl]-3H-benzofuran-5-yl]pyrazolo[1,5-a]pyrimidine-3-carboxamide], the Ki was 5.1 nM. Molecule `CC1(C)Cc2cc(NC(=O)c3cnn4cccnc34)c(N3CCC(C)(C(N)=O)CC3)cc2O1` [Example 184, N-[6-(4-carbamoyl-4-methyl-1-piperidyl)-2,2-dimethyl-3H-benzofuran-5-yl]pyrazolo[1,5-a]pyrimidine-3-carboxamide] has a Ki of 3.1 nM. For `CC1(C)Cc2cc(NC(=O)c3cnn4cccnc34)c(N3CCCC(O)CC3)cc2O1` (centres unmarked) [Example 185, N-[6-(4-hydroxyazepan-1-yl)-2,2-dimethyl-3H-benzofuran-5-yl]pyrazolo[1,5-a]pyrimidine-3-carboxamide], the Ki was 5.8 nM. `CC1(C)Cc2cc(NC(=O)c3cnn4cccnc34)c(N3C[C@@H]4[C@H](C3)[C@H]4C(N)=O)cc2O1` [Example 186, N-[6-[(1S,5R)-6-carbamoyl-3-azabicyclo[3.1.0]hexan-3-yl]-2,2-dimethyl-3H-benzofuran-5-yl]pyrazolo[1,5-a]pyrimidine-3-carboxamide] gave a Ki of 15 nM. `CC1(C)Cc2cc(NC(=O)c3cnn4cccnc34)c(N3CCN(CC(N)=O)CC3)cc2O1` [Example 187, N-[6-[4-(2-amino-2-oxo-ethyl)piperazin-1-yl]-2,2-dimethyl-3H-benzofuran-5-yl]pyrazolo[1,5-a]pyrimidine-3-carboxamide] gave a Ki of 2 nM. `Cn1cncc1C1CCN(c2cc3c(cc2NC(=O)c2cnn4cccnc24)CC(C)(C)O3)C1` (centres unmarked) [Example 188, N-[2,2-dimethyl-6-[3-(3-methylimidazol-4-yl)pyrrolidin-1-yl]-3H-benzofuran-5-yl]pyrazolo[1,5-a]pyrimidine-3-carboxamide] gave a Ki of 84 nM. `CC1(C)Cc2cc(NC(=O)c3cnn4cccnc34)c(N3Cc4cccnc4C3)cc2O1` [Example 189, N-[6-(5,7-dihydropyrrolo[3,4-b]pyridin-6-yl)-2,2-dimethyl-3H-benzofuran-5-yl]pyrazolo[1,5-a]pyrimidine-3-carboxamide] was tested, and the Ki was 5.5 nM. With `CC1(C)Cc2cc(NC(=O)c3cnn4cccnc34)c(N3CCCC(c4ccn[nH]4)C3)cc2O1` (centres unmarked) [Example 190, N-[2,2-dimethyl-6-[3-(1H-pyrazol-5-yl)-1-piperidyl]-3H-benzofuran-5-yl]pyrazolo[1,5-a]pyrimidine-3-carboxamide] the Ki was 630 nM. Work on `CC1(C)Cc2cc(NC(=O)c3cnn4cccnc34)c(N3CC4COCC4C3)cc2O1` (centres unmarked) [Example 191, N-[6-(1,3,3a,4,6,6a-hexahydrofuro[3,4-c]pyrrol-5-yl)-2,2-dimethyl-3H-benzofuran-5-yl]pyrazolo[1,5-a]pyrimidine-3-carboxamide] yielded a Ki of 27 nM. Work on `CC1(C)Cc2cc(NC(=O)c3cnn4cccnc34)c(N3CCC(c4cc[nH]n4)C3)cc2O1` (centres unmarked) [Example 192, N-[2,2-dimethyl-6-[3-(1H-pyrazol-3-yl)pyrrolidin-1-yl]-3H-benzofuran-5-yl]pyrazolo[1,5-a]pyrimidine-3-carboxamide] yielded a Ki of 44 nM. `CC1(C)Cc2cc(NC(=O)c3cnn4cccnc34)c(N3CC4CC3CC4(F)F)cc2O1` (centres unmarked) [Example 193, N-[6-(5,5-difluoro-2-azabicyclo[2.2.1]heptan-2-yl)-2,2-dimethyl-3H-benzofuran-5-yl]pyrazolo[1,5-a]pyrimidine-3-carboxamide] showed a Ki of 100 nM. Work on `CC1(C)Cc2cc(NC(=O)c3cnn4cccnc34)c(N3CC4(CCCOC4)C3)cc2O1` [Example 194, N-[2,2-dimethyl-6-(6-oxa-2-azaspiro[3.5]nonan-2-yl)-3H-benzofuran-5-yl]pyrazolo[1,5-a]pyrimidine-3-carboxamide] yielded a Ki of 410 nM. For `CC1(C)Cc2cc(NC(=O)c3cnn4cccnc34)c(N3CCC(C(F)(F)F)C3)cc2O1` (centres unmarked) [Example 195, N-[2,2-dimethyl-6-[3-(trifluoromethyl)pyrrolidin-1-yl]-3H-benzofuran-5-yl]pyrazolo[1,5-a]pyrimidine-3-carboxamide], the Ki was 20 nM. `CC1(C)Cc2cc(NC(=O)c3cnn4cccnc34)c(N3CCCC(F)(F)C3)cc2O1` [Example 196, N-(6-(3,3-difluoropiperidin-1-yl)-2,2-dimethyl-2,3-dihydrobenzofuran-5-yl)pyrazolo[1,5-a]pyrimidine-3-carboxamide] showed a Ki of 13 nM. Work on `CC1(C)Cc2cc(NC(=O)c3cnn4cccnc34)c(N3C[C@@H]4CC(F)(F)C[C@@H]4C3)cc2O1` [Example 197, N-(6-((3aR,6aS)-5,5-difluorohexahydrocyclopenta[c]pyrrol-2(1H)-yl)-2,2-dimethyl-2,3-dihydrobenzofuran-5-yl)pyrazolo[1,5-a]pyrimidine-3-carboxamide] yielded a Ki of 33 nM. Molecule `COCC1CN(c2cc3c(cc2NC(=O)c2cnn4cccnc24)CC(C)(C)O3)CCO1` (centres unmarked) [Example 198, N-(6-(2-(methoxymethyl)morpholino)-2,2-dimethyl-2,3-dihydrobenzofuran-5-yl)pyrazolo[1,5-a]pyrimidine-3-carboxamide] has a Ki of 140 nM.
